Assay results as given in US20230099344A1, “COMPOUNDS AND METHODS FOR THE TARGETED DEGRADATION OF IRAK-4” (Arvinas Operations, Inc., priority 2021, published 2023).

How the values were obtained:
Type in all cases: cell-based
IL6 [1] = assay: LPS stimulated IL6 inhibition assay in PBMC; conditions: human PBMCs, LPS stimulation, compound overnight, IL6 by MSD after 24 hrs; for Dmax: read-out: LPS Stim IL6 inhibition Dmax; for IC50: read-out: LPS stim IL6 inhibition IC50
Method: (§1) IL-1β, LPS, or R848 Stimulated IL6 Inhibition and IL-1β Stimulated IL8 Inhibition Assay
(§2) Human PBMC cells were seeded at 2.0×10^6 cells/mL, treated with compound overnight, and dosed with the EC50 concentration of each stimulant (either IL-1B. LPS, or R848) was determined for each donor. After 24 hrs, media was collected and analyzed by MSD for IL6 and/or IL8 levels.

IRAK-4 = target: T1, IRAK-4 (Homo sapiens, UniProt Q9NWZ3); assay: IRAK-4 ELISA, PBMC degradation; parameters: endogenous in cells; host or cells: PBMC; conditions: treated overnight
T1 sequence (Q9NWZ3 1-460): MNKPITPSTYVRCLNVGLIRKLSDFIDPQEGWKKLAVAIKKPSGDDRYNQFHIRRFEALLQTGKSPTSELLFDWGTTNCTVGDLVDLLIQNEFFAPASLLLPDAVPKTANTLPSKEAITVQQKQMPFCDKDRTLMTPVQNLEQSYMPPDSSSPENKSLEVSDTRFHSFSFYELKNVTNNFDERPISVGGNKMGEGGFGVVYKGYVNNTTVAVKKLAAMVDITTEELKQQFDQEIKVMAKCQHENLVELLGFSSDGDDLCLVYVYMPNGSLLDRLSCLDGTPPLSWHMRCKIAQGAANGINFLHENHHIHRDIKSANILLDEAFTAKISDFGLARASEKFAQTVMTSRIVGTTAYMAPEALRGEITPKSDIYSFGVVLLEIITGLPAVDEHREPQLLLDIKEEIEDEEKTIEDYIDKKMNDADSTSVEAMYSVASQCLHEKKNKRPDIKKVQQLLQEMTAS
Method in brief: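 ELISA quantification of cellular IRAK-4 after compound treatment overnight; PBMC were plated at 2×10^6/ml, OCI-Ly10 at 1×10^6/ml.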

IL6 [2] = assay: R848 stimulated IL6 inhibition assay in PBMC; conditions: human PBMCs, R848 stimulation, compound overnight, IL6 by MSD after 24 hrs; for Dmax: Homo sapiens, 24 h, read-out: R848 stim IL6 inhibition Dmax; for IC50: read-out: R848 stim IL6 inhibition IC50
Method: as §1, §2

Compound	Dmax (IL6 [1]; Homo sapiens, PBMC, 24 h) [%]	IC50 (IL6 [1]; Homo sapiens, PBMC, 24 h) [nM]	DC50 (IRAK-4) [nM]	Dmax (IRAK-4) [%]	PBMC DC90 (IRAK-4)	Dmax (IL6 [2]; PBMC) [%]	IC50 (IL6 [2]; PBMC) [nM]	LPS Stim IL6 inhibition Dmax (IL6 [1])	IC50 (IL6 [1]) [nM]	PBMC Dmax (IRAK-4)	R848 stim IL6 inhibition Dmax (IL6 [2])	IC50 (IL6 [2]) [nM]
CC(C)Oc1cc2c(cc1NC(=O)c1cnn3cccnc13)CN(C1CCN(CC3(O)CCN(c4ccc5c(c4)C(=O)N(C4CCC(=O)NC4=O)C5=O)CC3)CC1)C2=O (stereo not drawn) [Example 109]	70 to 80	10 to 50	< 1	≥ 90	A (A represents a DC90 value <10.0 nM)	≥ 90	10 to 50	–	–	–	–	–
C=C(CN1CCC(N2Cc3cc(NC(=O)c4cnn5cccnc45)c(OC(C)C)cc3C2=O)CC1)C1CCN(c2ccc3c(c2)C(=O)N(C2CCC(=O)NC2=O)C3=O)CC1 (stereo not drawn) [Example 110]	80 to 90	10 to 50	1 to 5	≥ 90	B (B represents a DC90 value ≥10.0 nM and <25.0 nM)	≥ 90	10 to 50	–	–	–	–	–
CC(C)Oc1cc2c(cc1NC(=O)c1cnn3cccnc13)CN(C1CCN(C(C)(C)C3CCN(c4ccc5c(c4)CN(C4CCC(=O)NC4=O)C5=O)CC3)CC1)C2=O (stereo not drawn) [Example 111]	≥ 90	10 to 50	< 1	80 to 90	A (A represents a DC90 value <10.0 nM)	≥ 90	10 to 50	–	–	–	–	–
O=C1CCC(N2C(=O)c3ccc(N4CC(F)(CN5CCC(N6Cc7cc(NC(=O)c8cnn9cccnc89)c(N8CCC(N9CCC9)CC8)cc7C6=O)CC5)C4)cc3C2=O)C(=O)N1 (stereo not drawn) [Example 116]	80 to 90	< 10	1 to 5	≥ 90	B (B represents a DC90 value ≥10.0 nM and <25.0 nM)	≥ 90	< 10	–	–	–	–	–
O=C1CCC(N2Cc3cc(N4CC(F)(CN5CCC(N6Cc7cc(NC(=O)c8cnn9cccnc89)c(N8CCC(N9CCC9)CC8)cc7C6=O)CC5)C4)ccc3C2=O)C(=O)N1 (stereo not drawn) [Example 117]	70 to 80	10 to 50	1 to 5	≥ 90	B (B represents a DC90 value ≥10.0 nM and <25.0 nM)	80 to 90	10 to 50	–	–	–	–	–
O=C1CCC(N2Cc3cc(N4CCC(CN5CCC(n6cc7cc(NC(=O)c8cnn9cccnc89)c(OCC(F)F)cc7n6)CC5)CC4)ccc3C2=O)C(=O)N1 (stereo not drawn) [Example 149]	70 to 80	10 to 50	< 1	80 to 90	A (A represents a DC90 value <10.0 nM)	≥ 90	< 10	–	–	–	–	–
O=C1CCC(N2C(=O)c3ccc(N4CCC(CN5CCC(n6cc7cc(NC(=O)c8cnn9cccnc89)c(N8CCC(N9CCC9)CC8)cc7n6)CC5)CC4)cc3C2=O)C(=O)N1 (stereo not drawn) [Example 150]	80 to 90	50 to 100	1 to 5	80 to 90	C (C represents a DC90 value ≥25.0 nM and <50 nM)	≥ 90	10 to 50	–	–	–	–	–
O=C1CCC(N2Cc3c(ccc(N4CCC(CN5CCC(n6cc7cc(NC(=O)c8cnn9cccnc89)c(OCC8CC8)cc7n6)CC5)CC4)c3F)C2=O)C(=O)N1 (stereo not drawn) [Example 153]	≥ 90	< 10	< 1	80 to 90	A (A represents a DC90 value <10.0 nM)	80 to 90	< 10	–	–	–	–	–
O=C1CCC(N2Cc3c(ccc(N4CCC(CN5CCC(n6cc7cc(NC(=O)c8cnn9cccnc89)c(OCC(F)F)cc7n6)CC5)CC4)c3F)C2=O)C(=O)N1 (stereo not drawn) [Example 154]	80 to 90	< 10	< 1	80 to 90	A (A represents a DC90 value <10.0 nM)	≥ 90	< 10	–	–	–	–	–
O=C1CCC(N2Cc3ccc(N4CCC(CN5CCC(n6cc7cc(NC(=O)c8cnn9cccnc89)c(OCC8CC8)cc7n6)CC5)CC4)cc3C2=O)C(=O)N1 (stereo not drawn) [Example 155]	80 to 90	< 10	< 1	≥ 90	A (A represents a DC90 value <10.0 nM)	≥ 90	< 10	–	–	–	–	–
O=C1CCC(N2Cc3cc(N4CCC(CN5CCC(n6cc7cc(NC(=O)c8cnn9cccnc89)c(OCC(F)F)cc7n6)CC5)CC4)ccc3C2=O)C(=O)N1 (stereo not drawn) [Example 156]	–	–	< 1	–	A (A represents a DC90 value <10.0 nM)	–	–	C (C represents a Ymax value ≥70 and <80)	< 10	A (A represents a Dmax value ≥90)	A (A represents a Ymax value ≥90)	< 10
O=C1CCC(N2Cc3cc(N4CCC(CN5CCC(n6cc7cc(NC(=O)c8cnn9cccnc89)c(N8CCN(CC(F)F)CC8)cc7n6)CC5)CC4)ccc3C2=O)C(=O)N1 (stereo not drawn) [Example 157]	70 to 80	10 to 50	< 1	≥ 90	A (A represents a DC90 value <10.0 nM)	≥ 90	10 to 50	–	–	–	–	–
O=C1CCC(N2Cc3c(ccc(N4CCC(CN5CCC(n6cc7cc(NC(=O)c8cnn9cccnc89)c(N8CCN(CC(F)F)CC8)cc7n6)CC5)CC4)c3F)C2=O)C(=O)N1 (stereo not drawn) [Example 158]	80 to 90	< 10	< 1	≥ 90	A (A represents a DC90 value <10.0 nM)	≥ 90	< 10	–	–	–	–	–
O=C1CCC(N2C(=O)c3ccc(N4CCC(CN5CCC(n6cc7cc(NC(=O)c8cnn9cccnc89)c(N8CCN(CC(F)F)CC8)cc7n6)CC5)CC4)cc3C2=O)C(=O)N1 (stereo not drawn) [Example 159]	70 to 80	10 to 50	1 to 5	≥ 90	A (A represents a DC90 value <10.0 nM)	≥ 90	10 to 50	–	–	–	–	–
O=C1CCC(N2C(=O)c3ccc(N4CC(F)(CN5CCC(n6cc7cc(NC(=O)c8cnn9cccnc89)c(N8CCOCC8)cc7n6)CC5)C4)cc3C2=O)C(=O)N1 (stereo not drawn) [Example 218]	70 to 80	10 to 50	5 to 10	80 to 90	D (D represents a DC90 value ≥50 nM)	≥ 90	< 10	–	–	–	–	–
CC1(CN2CCC(n3cc4cc(NC(=O)c5cnn6cccnc56)c(OCC5CC5)cc4n3)CC2)CN(c2cc3c(cc2F)C(=O)N(C2CCC(=O)NC2=O)C3=O)C1 (stereo not drawn) [Example 222]	70 to 80	50 to 100	≥ 10	70 to 80	D (D represents a DC90 value ≥50 nM)	≥ 90	50 to 100	–	–	–	–	–
O=C1CCC(N2C(=O)c3ccc(N4CC[C@@H](N5CCC(n6cc7cc(NC(=O)c8cnn9cccnc89)c(OCC8CC8)cc7n6)CC5)C4)cc3C2=O)C(=O)N1 (stereo partly drawn) [Example 224]	80 to 90	10 to 50	1 to 5	80 to 90	B (B represents a DC90 value ≥10.0 nM and <25.0 nM)	≥ 90	10 to 50	–	–	–	–	–
O=C1CCC(N2C(=O)c3ccc(N4CC(F)(CN5CCC(n6cc7cc(NC(=O)c8cnn9cccnc89)c(OCC(F)F)cc7n6)CC5)C4)cc3C2=O)C(=O)N1 (stereo not drawn) [Example 231]	80 to 90	10 to 50	1 to 5	80 to 90	A (A represents a DC90 value <10.0 nM)	≥ 90	10 to 50	–	–	–	–	–
